EC50 data for 1 compound are collected here from BindingDB's records for doi:10.1021/acs.jmedchem.8b01200 (Fuji Research Park, R&D Division, 2018).

Some results are limits rather than exact numbers.

The experiment is described as follows: Agonist activity at PPARgamma in human MKN45 cells assessed as cell differentiation after 5 days by Hoechst 33342 staining-based assay.

By EC50 is commonly meant the midpoint of the concentration-response curve. In the case of `CCCCCS(=O)(=O)NC(=O)c1ccc2nc(C)n(Cc3ccc(Cl)cc3Cl)c2c1` [ATx08-001], the EC50 was over 500 nM.
